US20120283302A1, “SCCA-1 PRODUCTION INHIBITOR HAVING A CARBOXAMIDE DERIVATIVE AND/OR A SALT THEREOF AS AN ACTIVE INGREDIENT” (SHISEIDO COMPANY, LTD, priority 2009, published 2012)

Columns and labels:
Human SCCA1 = experiment: SCCA-1 expression-inhibiting effect in cultured human keratinocytes (quantitative PCR, G3PDH internal standard); assay type: cell-based; conditions: 24 hours after addition at different concentrations, vs no-drug negative control, FIG. 1-3
Protocol: SCCA-1 expression-inhibiting effects of carboxyamide derivatives in cell line:
Human keratinocytes were cultured, and carboxyamide derivatives at different concentrations were added at 60-70% confluency. The carboxyamide derivatives used were the following:
After 24 hours, the RNA was obtained, and then it was subjected to a quantitative PCR analysis by ABI PRISM 7900HT Sequence Detector System (Taqman PE) (Applied Biosystems) with using a primer/probe combination shown below, thereby the amount of SCCA gene expression was measured (using G3PDH as the internal standard). • Human SCCA1 • Forward primer: 5′-GTGCTATCTGGAGTCCT-3′ (SEQ ID NO: 1) • Reverse primer: 5′-CTGTTGTTGCCAGCAA-3′ (SEQ ID NO: 2) • Probe: 5′-CATCACCTACTTCAACT-3′ (SEQ ID NO: 3) • Human G3PDH • Forward primer: 5′-GAAGGTGAAGGTCGGAGTC-3′ (SEQ ID NO: 4) • Reverse primer: 5′-[…]-3′ (SEQ ID NO: 5) • Probe: 5′-[…]-3′ (SEQ ID NO: 6)

SCAA-1 = conditions: known from Japanese Patent Application No. 2008-903571; cited from earlier work
SCAA-2 = conditions: known from Japanese Patent Application No. 2008-903571; cited from earlier work

Row | SMILES | SCCA-1 gene expression (Human SCCA1) | gene expression-inhibiting effect on SCAA-1 (SCAA-1) | gene expression-inhibiting effect on SCAA-2 (SCAA-2)
1 | NC(N)=O [urea] | significant dose-dependent reduction in SCCA-1 gene expression |  | 
2 | O=C1NCCN1CCO [1-(2-hydroxyethyl)-2-imidazolidinone] | significant dose-dependent reduction in SCCA-1 gene expression |  | 
3 | O=C(O)CCN1CCCCC1 [1-piperidinepropionic acid (1-PP), 1-piperidinepropionic acid] |  | gene expression-inhibiting effect | gene expression-inhibiting effect
4 | NC(=O)NC1NC(=O)NC1=O (stereo not shown) [allantoin] | significant dose-dependent reduction in SCCA-1 gene expression |  | 
5 | O=C1CCCN1CCO [1-(2-hydroxyethyl)-2-pyrrolidone] | significant dose-dependent reduction in SCCA-1 gene expression |  | 
6 | O=C1NCCN1 [ethyleneurea] | significant dose-dependent reduction in SCCA-1 gene expression |  | 
